Target: T1, Human Nav1.2 (Homo sapiens, UniProt Q99250)
T1 construct: expressed in transfected cells
Assay: Nav1.2 use-dependent block, whole-cell voltage clamp
Format: cell-based
Conditions: use-dependent block 10 Hz, read-out: NAv1.2*-CHAN TEST-UDB-10 HZ-
Text: Wild-type (WT) cDNA stably transfected in Chinese hamster ovary (CHO) cells is used to record INa. Unless otherwise noted, all reagents are purchased from Sigma-Aldrich (St Louis, Mo., U.S.A.).
Whole-cell voltage-clamp recordings are used to measure the biophysical properties of WT. Briefly, the pipette solution consists of (in mM) 110 CsF, 10 NaF, 20 CsCl, 2 EGTA, 10 HEPES, with a pH of 7.35 and osmolarity of 300 mOsmol/kg. The bath (control) solution contains in (mM): 145 NaCl, 4 KCl, 1.8 CaCl2, 1 MgCl2, 10 dextrose, 10 HEPES, with a pH of 7.35 and osmolarity of 310 mOsmol/kg. Cells are allowed to stabilize for 10 min after establishment of the whole-cell configuration before current is measured. Series resistance is compensated 90% to assure that the command potential is reached within microseconds with a voltage error <2 mV. Leak currents are subtracted by using an online P/4 procedure and all currents are low-pass Bessel filtered at 5 kHz and digitized at 50 kHz.
Tonic block of peak current is measured using a step to −10 mV (20 ms) from a holding potential of −120 mV (0.2 Hz). Use-dependent block of peak current is measured during pulse number 300 of a pulse train (−10 mV, 5 ms, 300 pulses, 10 Hz or 25 Hz) from a holding potential of −120 mV. Two sequential pulse train stimulations are averaged to obtain mean current traces for each recording condition, which are then used for offline subtraction and analysis.
For use-dependent studies, cells are stimulated with depolarizing pulse trains (−10 mV, 5 ms, 300 pulses, 10 and 25 Hz) from a holding potential of −120 mV. Currents are then normalized to the peak current recorded in response to the first pulse in each frequency train. For tonic block studies, peak current is evaluated in response to a 20 ms depolarization to −10 mV (0.2 Hz). Data analysis is performed using Clampfit 9.2 (Axon Instruments, Union City, Calif., U.S.A), Excel 2002 (Microsoft, Seattle, Wash., U.S.A.), and OriginPro 7.0 (OriginLab, Northampton, Mass., U.S.A) software. Results are presented as mean±SEM.
A stock solution of 10 mM compound of Formula I is prepared in 0.1 M HCl or DMSO. A fresh dilution of the compound of Formula I in the bath solution is prepared every experimental day and the pH is readjusted to 7.35 as necessary. The final DMSO concentration was kept at 0.1% in all solutions. Direct application of the perfusion solution to the clamped cell is achieved using the Perfusion Pencil system (Automate, Berkeley, Calif.). Direct cell perfusion is driven by gravity at a flow rate of 350 μL/min using a 250 micron tip. This system sequesters the clamped cell within a perfusion stream and enables complete solution exchange within 1 second. The clamped cell is perfused continuously starting immediately after establishing the whole-cell configuration. Control currents are measured during control solution perfusion.
Solutions are perfused for three minutes prior to current recordings to allow equilibrium (tonic) drug block. Tonic block of peak currents is measured from this steady-state condition. Three sequential current traces are averaged to obtain a mean current for each recording. The mean current traces are utilized for offline analysis. Use-dependent block of peak current is measured during pulse number 300 of the pulse train, (−10 mV, 5 ms, 300 pulses, 10 Hz) from a holding potential of −120 mV. Two sequential pulse train stimulations are averaged to obtain mean current traces for each recording condition, which are then used for offline subtraction and analysis. Where appropriate, concentration inhibition curves are fit with the Hill equation: I/Imax=1/[1+10̂(log IC50−I)*k], where IC50 is the concentration that produces half inhibition and k is the Hill slope factor.

T1 sequence (Q99250 whole entry): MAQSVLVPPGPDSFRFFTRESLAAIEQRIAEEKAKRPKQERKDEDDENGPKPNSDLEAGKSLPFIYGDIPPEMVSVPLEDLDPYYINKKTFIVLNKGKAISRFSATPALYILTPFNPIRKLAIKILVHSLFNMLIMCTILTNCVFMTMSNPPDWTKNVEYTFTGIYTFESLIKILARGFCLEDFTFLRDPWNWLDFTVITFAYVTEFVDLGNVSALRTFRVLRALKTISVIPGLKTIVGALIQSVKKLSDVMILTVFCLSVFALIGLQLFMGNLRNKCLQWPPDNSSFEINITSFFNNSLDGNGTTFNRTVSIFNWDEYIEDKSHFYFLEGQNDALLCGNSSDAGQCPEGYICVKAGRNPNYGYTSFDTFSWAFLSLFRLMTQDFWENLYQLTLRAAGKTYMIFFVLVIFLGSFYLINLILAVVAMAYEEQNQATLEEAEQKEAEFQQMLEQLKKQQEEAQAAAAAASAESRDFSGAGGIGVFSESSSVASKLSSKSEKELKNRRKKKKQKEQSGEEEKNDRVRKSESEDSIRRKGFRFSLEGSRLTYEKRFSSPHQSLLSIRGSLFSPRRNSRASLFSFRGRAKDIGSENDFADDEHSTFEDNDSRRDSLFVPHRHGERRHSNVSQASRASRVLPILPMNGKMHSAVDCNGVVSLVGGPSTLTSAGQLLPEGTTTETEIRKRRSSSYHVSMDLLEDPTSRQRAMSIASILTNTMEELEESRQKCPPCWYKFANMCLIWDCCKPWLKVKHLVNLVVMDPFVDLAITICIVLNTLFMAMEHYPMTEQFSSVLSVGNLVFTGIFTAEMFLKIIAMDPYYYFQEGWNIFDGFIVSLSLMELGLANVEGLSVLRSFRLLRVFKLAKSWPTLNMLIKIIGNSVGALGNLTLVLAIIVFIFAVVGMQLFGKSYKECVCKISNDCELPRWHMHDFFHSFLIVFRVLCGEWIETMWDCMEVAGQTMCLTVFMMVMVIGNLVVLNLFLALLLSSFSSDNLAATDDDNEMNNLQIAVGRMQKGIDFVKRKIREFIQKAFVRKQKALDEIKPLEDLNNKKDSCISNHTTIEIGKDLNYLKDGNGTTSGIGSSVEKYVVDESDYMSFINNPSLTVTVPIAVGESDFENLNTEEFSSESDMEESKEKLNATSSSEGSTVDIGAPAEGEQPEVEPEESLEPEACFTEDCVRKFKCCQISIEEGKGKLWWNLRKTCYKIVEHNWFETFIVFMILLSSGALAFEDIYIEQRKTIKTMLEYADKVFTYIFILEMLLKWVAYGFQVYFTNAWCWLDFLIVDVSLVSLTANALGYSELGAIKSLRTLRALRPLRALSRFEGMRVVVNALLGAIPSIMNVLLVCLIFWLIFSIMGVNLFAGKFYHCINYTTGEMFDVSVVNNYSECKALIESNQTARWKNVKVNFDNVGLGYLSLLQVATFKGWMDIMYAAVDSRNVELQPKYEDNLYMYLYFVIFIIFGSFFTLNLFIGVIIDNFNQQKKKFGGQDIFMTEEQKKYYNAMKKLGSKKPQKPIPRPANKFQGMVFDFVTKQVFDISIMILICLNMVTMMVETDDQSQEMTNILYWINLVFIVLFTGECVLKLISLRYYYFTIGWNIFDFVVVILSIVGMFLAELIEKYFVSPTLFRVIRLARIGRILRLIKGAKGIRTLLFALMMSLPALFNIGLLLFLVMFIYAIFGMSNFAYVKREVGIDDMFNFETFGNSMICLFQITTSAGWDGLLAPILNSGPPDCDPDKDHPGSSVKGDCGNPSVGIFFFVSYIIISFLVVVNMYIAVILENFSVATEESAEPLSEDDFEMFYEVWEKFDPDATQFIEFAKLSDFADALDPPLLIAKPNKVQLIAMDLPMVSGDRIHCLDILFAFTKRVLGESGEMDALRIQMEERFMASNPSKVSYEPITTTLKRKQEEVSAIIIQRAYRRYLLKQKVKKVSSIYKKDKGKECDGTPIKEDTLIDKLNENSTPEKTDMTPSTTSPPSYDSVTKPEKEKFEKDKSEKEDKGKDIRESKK

inhibition at 1 µM [%]	SMILES
-3.2	Cc1noc(Cn2nnc3ccc(-c4ccc(OC(F)(F)F)cc4)cc3c2=O)n1 [II-3, 3-((3-methyl-1,2,4-oxadiazol-5-yl)methyl)-6-(4-(trifluoromethoxy)phenyl)benzo[d][1,2,3]triazin-4(3H)-one]
-0.7	O=c1c2cc(-c3ccc(OC(F)(F)F)cc3)ccc2nnn1Cc1noc(C2CC2)n1 [II-14, 3-((5-cyclopropyl-1,2,4-oxadiazol-3-yl)methyl)-6-(4-(trifluoromethoxy)phenyl)benzo[d][1,2,3]triazin-4(3H)-one]
16.9	O=c1c2cc(-c3ccc(OC(F)(F)F)cc3)ccc2nnn1CCOc1ncccn1 [II-32, 3-(2-(pyrimidin-2-yloxy)ethyl)-6-(4-(trifluoromethoxy)phenyl)benzo[d][1,2,3]triazin-4(3H)-one]
10.9	N#Cc1ccnc(OCCn2nnc3ccc(-c4ccc(OC(F)(F)F)cc4)cc3c2=O)n1 [II-36, 2-(2-(4-oxo-6-(4-(trifluoromethoxy)phenyl)benzo[d][1,2,3]triazin-3(4H)-yl)ethoxy)pyrimidine-4-carbonitrile]
8	O=c1c2cc(-c3ccc(OC(F)(F)F)cc3)ccc2nnn1C1CCNCC1 [II-38, 3-(piperidin-4-yl)-6-(4-(trifluoromethoxy)phenyl)benzo[d][1,2,3]triazin-4(3H)-one]
-8.2	Cc1ncc(Cn2nnc3ccc(-c4ccc(OC(F)(F)F)cc4)cc3c2=O)o1 [II-95, 3-((2-methyloxazol-5-yl)methyl)-6-(4-(trifluoromethoxy)phenyl)benzo[d][1,2,3]triazin-4(3H)-one]
5.5	O=c1c2cc(-c3ccc(OC(F)(F)F)cc3)ccc2cnn1Cc1ncccn1 [III-5, 2-(pyrimidin-2-ylmethyl)-7-(4-(trifluoromethoxy)phenyl)phthalazin-1(2H)-one]
3.5	O=c1c2cc(-c3ccc(OC(F)(F)F)cc3)ccc2cnn1CCn1cccn1 [III-9, 2-(2-(1H-pyrazol-1-yl)ethyl)-7-(4-(trifluoromethoxy)phenyl)phthalazin-1(2H)-one]
-6	COc1cc(OC)nc(Cn2ncc3ccc(-c4ccc(OC(F)(F)F)cc4)cc3c2=O)n1 [III-19, 2-((4,6-dimethoxypyrimidin-2-yl)methyl)-7-(4-(trifluoromethoxy)phenyl)phthalazin-1 (2H)-one]
28.8	O=c1c2cc(-c3ccc(OC(F)(F)F)cc3)ccc2cnn1CCOc1ncccn1 [III-28, 2-(2-(pyrimidin-2-yloxy)ethyl)-7-(4-(trifluoromethoxy)phenyl)phthalazin-1 (2H)-one]
7.1	Cc1noc(Cn2cnc3ccc(-c4ccc(OC(F)(F)F)cc4)cc3c2=O)n1 [IV-6, 3-((3-methyl-1,2,4-oxadiazol-5-yl)methyl)-6-(4-(trifluoromethoxy)phenyl)quinazolin-4(3H)-one]
8	Cc1nc(Cn2cnc3ccc(-c4ccc(OC(F)(F)F)cc4)cc3c2=O)no1 [IV-9, 3-((5-methyl-1,2,4-oxadiazol-3-yl)methyl)-6-(4-(trifluoromethoxy)phenyl)quinazolin-4(3H)-one]
3.8	O=C1c2cc(-c3ccc(OC(F)(F)F)cc3)ccc2CCN1Cc1ncccn1 [IX-1, 2-(pyrimidin-2-ylmethyl)-7-(4-(trifluoromethoxy)phenyl)-3,4-dihydroisoquinolin-1(2H)-one]
-4.1	O=C1c2cc(-c3ccc(C(F)(F)F)cc3)ccc2CCN1Cc1ncccn1 [IX-3, 2-(pyrimidin-2-ylmethyl)-7-(4-(trifluoromethyl)phenyl)-3,4-dihydroisoquinolin-1(2H)-one]
8.62	O=C(c1ncccn1)N1CCc2ccc(-c3ccc(C(F)(F)F)cc3)cc2C1 [IX-7, pyrimidin-2-yl(7-(4-(trifluoromethyl)phenyl)-3,4-dihydroisoquinolin-2(1H)-yl)methanone]
10.4	O=C(c1cccnn1)N1CCc2ccc(-c3ccc(C(F)(F)F)cc3)cc2C1 [IX-17, Pyridazin-3-yl(7-(4-(trifluoromethyl)phenyl)-3,4-dihydroisoquinolin-2 (1H)-yl) methanone]
16.8	Cn1cnc(C(=O)N2CCc3ccc(-c4ccc(C(F)(F)F)cc4)cc3C2)c1 [IX-39, (1-methyl-1H-imidazol-4-yl)(7-(4-(trifluoromethyl)phenyl)-3,4-dihydroisoquinolin-2(1H)-yl)methanone]
16	O=C1c2cc(-c3ccc(C(F)(F)F)cc3)ccc2OCN1Cc1ccccn1 [VIII-1, 3-(pyridin-2-ylmethyl)-6-(4-(trifluoromethyl)phenyl)-2H-benzo[e][1,3]oxazin-4(3H)-one]
11.7	O=C1c2cc(-c3ccc(OC(F)(F)F)cc3)ccc2OCN1Cc1ccccn1 [VIII-3, 3-(pyridin-2-ylmethyl)-6-(4-(trifluoromethoxy)phenyl)-2H-benzo[e][1,3]oxazin-4(3H)-one]
18.2	CC1Oc2ccc(-c3ccc(OC(F)(F)F)cc3)cc2C(=O)N1Cc1ncccn1 (stereo not drawn) [VIII-7, 2-methyl-3-(pyrimidin-2-ylmethyl)-6-(4-(trifluoromethoxy)phenyl)-2H-benzo[e][1,3]oxazin-4(3H)-one]
17.6	O=C1c2cc(-c3ccc(OC(F)(F)F)cc3)ccc2OCN1Cc1ncccn1 [VIII-20, 3-(pyrimidin-2-ylmethyl)-6-(4-(trifluoromethoxy)phenyl)-2H-benzo[e][1,3]oxazin-4(3H)-one]
